These results are taken from patent US12122785B2, “Substituted pyridines, pyridazines, pyrimidines, and 1,2,4-triazines as TYK2 inhibitors” (Sudo Biosciences Limited, priority 2021, dated 2024).

Molecules are shown by their SMILES.

For assay [1], the system named is TYK2 pseudokinase (JH2); IL-23-stimulated HEK-Blue IL-23 cells. Nature of the assay: HEK-Blue IL-23 reporter assay (STAT3-inducible SEAP) for profiling TYK2 pseudokinase (JH2) inhibition. It is filed as cell-based. As to conditions: 10 ng/mL human recombinant IL-23, SEAP readout, read-out: IL23 (TYK2 inhibitory activity, IC50). A digest of the protocol: (§1)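 Reporter cells were seeded in DMEM/10% heat-inactivated FBS and cultured 20-22 h at 37 °C. Compounds, serially diluted, were applied for 60 min before human recombinant IL-23 (10 ng/mL, 22-24 h) or IFNα (1 ng/mL, 16-18 h) was added. Secreted alkaline phosphatase was then quantified with QUANTI-Blue.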
In general terms: Reporter assays use an easily measured gene product as a stand-in for the process of interest.

In assay [2] the test system is TYK2 pseudokinase (JH2); IFNα-stimulated HEK-Blue IFNα/β cells. Nature of the assay: HEK-Blue IFNα/β reporter assay (STAT1-inducible SEAP) for profiling TYK2 pseudokinase (JH2) inhibition. It is filed as cell-based. The conditions noted are these: 1 ng/mL human recombinant IFNα, SEAP readout, read-out: IFNα (TYK2 inhibitory activity, IC50). Put shortly:
as §1

In assay [3] the target is T1, TYK2 kinase domain (JH1) (Homo sapiens, UniProt P29597).
T1 construct: recombinant purified His or GST-tagged catalytic domain for each enzyme; made in house
T1 sequence (P29597 897-1176 limits assumed): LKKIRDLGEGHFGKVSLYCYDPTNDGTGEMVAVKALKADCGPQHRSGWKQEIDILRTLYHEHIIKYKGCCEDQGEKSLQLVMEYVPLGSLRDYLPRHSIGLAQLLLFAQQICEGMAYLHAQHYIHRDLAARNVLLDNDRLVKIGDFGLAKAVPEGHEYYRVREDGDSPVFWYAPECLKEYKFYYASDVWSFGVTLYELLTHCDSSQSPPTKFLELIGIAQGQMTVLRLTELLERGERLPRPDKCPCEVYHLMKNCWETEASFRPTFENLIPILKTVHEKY
Nature of the assay: HTRF-based selectivity assay, TYK2 catalytic domain. The assay is classed as biochemical. As to conditions: 20 μM ATP.

In assay [4] the target is T2, JAK1 kinase domain (JH1) (Homo sapiens, UniProt P23458).
T2 construct: recombinant purified His or GST-tagged catalytic domain for each enzyme; made in house
Nature of the assay: HTRF-based selectivity assay, JAK1 catalytic domain. The assay is classed as biochemical. The conditions noted are these: 21.43 μM ATP, read-out: JAK-JHI (IC50). Put shortly: (§2)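 Recombinant His- or GST-tagged JAK catalytic domains (JAK1 80.6, JAK2 2.1, JAK3 171.8 ng/mL) preincubated with compound 5-20 min at RT, then ATP (JAK1 21.43, JAK2 14.7, JAK3 2.12 μM) plus peptide substrate (454.7, 200, 257.4 nM respectively) added. HEPES buffer with MgCl2, 60 min at 26.5 °C; HTRF read-out.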
(TR-FRET usually uses a lanthanide donor and a delayed reading to cut background.)

The target of assay [5] is T3, JAK2 kinase domain (JH1) (Homo sapiens, UniProt O60674).
T3 construct: recombinant purified His or GST-tagged catalytic domain for each enzyme; made in house
As to the kind of experiment: HTRF-based selectivity assay, JAK2 catalytic domain. It is filed as biochemical. As to conditions: 14.7 μM ATP. Put shortly:
as §2

Assay [6] has as its target T4, JAK3 kinase domain (JH1) (Homo sapiens, UniProt P52333).
T4 construct: recombinant purified His or GST-tagged catalytic domain for each enzyme; purchased Carna biosciences 08-046
Nature of the assay: HTRF-based selectivity assay, JAK3 catalytic domain. It is filed as biochemical. As to conditions: 2.12 μM ATP. Put shortly: as §2

The subject of assay [7] is IL-2-stimulated HEK-Blue IL-2 reporter cells. Nature of the assay: HEK-Blue IL-2 reporter assay (STAT5-inducible SEAP) for determining selectivity. It is filed as cell-based. As to conditions: 4 ng/mL human recombinant IL-2, 24 hours. A digest of the protocol: (§3)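 Cells were plated for 20-22 h, then pretreated with serially diluted compound for 60 min. They were stimulated for 24 h with 4 ng/mL human recombinant IL-2 or 50 ng/mL human recombinant IFNγ, and SEAP induction was read with QUANTI-Blue.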

In assay [8] the test system is IFNγ-stimulated HEK-Blue IFNγ reporter cells. Nature of the assay: HEK-Blue IFNγ reporter assay (STAT1-inducible SEAP) for determining selectivity. The assay is classed as cell-based. As to conditions: 50 ng/mL human recombinant IFNγ, 24 hours, read-out: IFN-γ SEAP selectivity assay IC50. Put shortly: as §3

T4 sequence (P52333 822-1111 limits assumed): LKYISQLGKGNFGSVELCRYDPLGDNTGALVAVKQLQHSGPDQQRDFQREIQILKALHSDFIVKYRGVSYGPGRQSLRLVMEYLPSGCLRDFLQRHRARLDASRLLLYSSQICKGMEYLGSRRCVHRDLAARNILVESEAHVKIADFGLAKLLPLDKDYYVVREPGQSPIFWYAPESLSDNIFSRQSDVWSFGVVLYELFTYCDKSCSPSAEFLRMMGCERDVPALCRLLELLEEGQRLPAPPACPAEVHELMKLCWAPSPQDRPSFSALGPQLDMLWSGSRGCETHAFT
T2 sequence (P23458 875-1153 limits assumed): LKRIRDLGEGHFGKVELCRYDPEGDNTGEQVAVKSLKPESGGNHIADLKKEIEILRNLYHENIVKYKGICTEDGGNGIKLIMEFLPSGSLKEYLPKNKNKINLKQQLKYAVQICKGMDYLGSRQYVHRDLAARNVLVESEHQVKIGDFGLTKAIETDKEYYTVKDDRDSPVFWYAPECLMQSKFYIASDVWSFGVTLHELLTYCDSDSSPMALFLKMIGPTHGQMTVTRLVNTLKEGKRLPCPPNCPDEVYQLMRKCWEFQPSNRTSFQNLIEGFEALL
T3 sequence (O60674 849-1124 limits assumed): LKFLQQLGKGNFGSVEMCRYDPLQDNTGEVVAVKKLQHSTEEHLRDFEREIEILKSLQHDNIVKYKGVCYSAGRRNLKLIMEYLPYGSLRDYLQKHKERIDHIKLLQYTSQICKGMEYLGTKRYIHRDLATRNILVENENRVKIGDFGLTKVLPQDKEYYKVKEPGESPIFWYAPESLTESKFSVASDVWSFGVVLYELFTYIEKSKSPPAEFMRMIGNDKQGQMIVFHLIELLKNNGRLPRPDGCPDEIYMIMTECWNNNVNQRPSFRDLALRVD

One may read the IC50 as the concentration at which inhibition is half-maximal. Take `[2H]C([2H])([2H])NC(=O)c1cnc(N2CCN(C(C)C)C2=O)cc1Nc1cccc2c1N(C)Cc1cn(C)nc1-2` [Compound 61, 4-((2,5-dimethyl-4,5-dihydro-2H-pyrazolo[4,3-c]quinolin-6-yl)amino)-6-(3-isopropyl-2-oxoimidazolidin-1-yl)-N-(methyl-d3)nicotinamide]: the IC50 is below 30 nM in assay [1]; 30 to 300 nM in assay [2]; above 1000 nM in assay [3]; above 1000 nM in assay [4]; above 1000 nM in assay [5]; above 1000 nM in assay [6]. For the same compound, the IC50 in assay [7] and in assay [8] was above 1000 nM throughout.

For `[2H]C([2H])([2H])NC(=O)c1nnc(NC(=O)C2CC2)cc1Nc1nccc2c1N(C)Cc1cn(C)nc1-2` [Compound 65, 6-(cyclopropanecarboxamido)-4-((2,5-dimethyl-4,5-dihydro-2H-pyrazolo[4,3-c][1,7]naphthyridin-6-yl)amino)-N-(methyl-d3)pyridazine-3-carboxamide], the IC50 was below 30 nM in assay [1]; below 30 nM in assay [2]; above 1000 nM in assay [3]; above 1000 nM in assay [4]; above 1000 nM in assay [5]; above 1000 nM in assay [6]. The IC50 in assay [7] was above 1000 nM; in assay [8] it was 30 to 300 nM.

For `[2H]C([2H])([2H])NC(=O)c1cnc(NC(=O)C2CC2)cc1Nc1nccc2c1N(C([2H])([2H])[2H])Cc1cn(C)nc1-2` [Compound 66, 6-(cyclopropanecarboxamido)-N-(methyl-d3)-4-((2-methyl-5-(methyl-d3)-4,5-dihydro-2H-pyrazolo[4,3-c][1,7]naphthyridin-6-yl)amino)nicotinamide], the IC50 is below 30 nM in assay [1]; below 30 nM in assay [2]; above 1000 nM in assay [3]; above 1000 nM in assay [4]; above 1000 nM in assay [5]; above 1000 nM in assay [6]. In addition, the IC50 in assay [7] was above 1000 nM; in assay [8], 300 to 1000 nM.
